IC50 data for 23 compounds are collected here from patent publication US9296745B2, “Diacylglycerol acyltransferase 2 inhibitors” (Pfizer Inc., priority 2012, dated 2016).

As a reminder, the IC50 is the point on the concentration scale where inhibition reaches its midpoint.

Chain of Human DGAT2 (hDGAT2) (Q96PD7 whole entry): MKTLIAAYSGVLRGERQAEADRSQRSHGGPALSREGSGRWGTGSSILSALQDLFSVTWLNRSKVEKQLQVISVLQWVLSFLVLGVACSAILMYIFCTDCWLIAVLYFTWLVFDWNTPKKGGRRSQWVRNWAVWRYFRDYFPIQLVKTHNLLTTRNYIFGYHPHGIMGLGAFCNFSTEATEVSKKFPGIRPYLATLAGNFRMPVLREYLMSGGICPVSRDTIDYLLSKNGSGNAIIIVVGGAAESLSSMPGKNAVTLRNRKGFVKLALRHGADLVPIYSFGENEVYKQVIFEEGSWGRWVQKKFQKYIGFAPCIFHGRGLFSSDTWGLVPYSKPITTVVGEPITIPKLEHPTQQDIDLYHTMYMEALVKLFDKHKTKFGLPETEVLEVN

For the test, the target named is Human DGAT2 (hDGAT2) (Homo sapiens (Human), UniProt Q96PD7). As to the kind of experiment: In vitro DGAT2 assay, IC50 determination with hDGAT2 membrane fraction. In kind it is biochemical. The settings on record: geometric mean; background for complete inhibition of DGAT2 obtained with 50 μM (1R,2R)-2-({3′-Fluoro-4′-[(6-fluoro-1,3-benzothiazol-2-yl)amino]-1,1′-biphenyl-4-yl}carbonyl)cyclopentanecarboxylic acid; read-out: DGAT2 IC50. On the procedure:
Recombinant baculovirus for the FLAG-tagged hDGAT2 was generated in SF9 insect cells using Bac-to-Bac baculovirus expression system (Invitrogen) according to the manufacturer's protocol. For the expression of hDGAT2, SF9 cells (20 L) grown in Sf900II media were infected with hDGAT2 baculovirus at a multiplicity of infection of 1 in a Wave Bioreactor System 20/50P wave bag (GE Healthcare). After 40 hours of infection, the cells were then harvested by centrifugation at 5,000×g. The cell pellets were washed by resuspending in phosphate buffered saline (PBS) and collected by centrifugation at 5,000×g. The cell paste was flash frozen in liquid N2 and stored at −80° C. until needed. All operations below were at 4° C. unless otherwise noted. The cells were resuspended in lysis buffer (50 mM Tris-HCl, pH 8.0, 250 mM sucrose) including 1 mM ethylenediaminetetraacetic acid (EDTA) and the complete protease inhibitor cocktail (Roche Diagnostics) at a ratio of 3 ml buffer per 1 g cell paste. The cells were lysed by dounce homogenizer. The cell debris was removed by centrifugation at 1,000×g for 20 min, and the supernatant was centrifuged at 100,000×g for 1 hour. The resulting pellet was rinsed three times by filling ultracentrifuge tubes to the top with ice cold PBS before decanting. The washed pellet was resuspended with gentle stirring for 1 hour in lysis buffer containing 8 mM 3-[(3-cholamidopropyl)dimethylammonio]-1-propanesulfonate (CHAPS) at a ratio of 1 mL buffer per 1 g of original cell paste and centrifuged again at 100,000×g for 1 hour. The resulting supernatant (hDGAT2 membrane fraction) was aliquotted, flash frozen in liquid N2, and stored at −80° C. until use.
To 1 μL of compounds dissolved in 100% DMSO and spotted at the bottom of each well, 5 μL of 0.04% bovine serum albumin (BSA) (fatty acid free, Sigma Aldrich) was added and the mixture was incubated at room temperature for 20 minutes. To this mixture, 10 μL of hDGAT2 membrane fraction (0.01 mg/mL) diluted in 100 mM Hepes-NaOH, pH 7.4, 20 mM MgCl2 containing 200 nM methyl arachidonyl fluorophosphonate (Cayman Chemical; dried from ethyl acetate stock solution under argon gas and dissolved in DMSO as 5 mM stock) was added. […] The reaction mixtures were incubated at room temperature for 40 min and the reactions were stopped by addition of 5 μL of 1% H3PO4. After the addition of 45 μL MicroScint-E (Perkin-Elmer), plates were sealed with Top Seal-A covers (Perkin-Elmer) and phase partitioning of substrates and products was achieved using a HT-91100 microplate orbital shaker (Big Bear Automation, Santa Clara, Calif.). Plates were centrifuged at 2,000×g for 1 min in an Allegra 6R Centrifuge (Beckman Coulter) and then were sealed again with fresh covers before reading in a 1450 Microbeta Wallac Trilux Scintillation Counter (Perkin Elmer). DGAT2 activity was measured by quantifying the generated product [^14C]tridecanoylglycerol in the upper organic phase.
Inhibitors were tested at eleven different concentrations to generate IC50 values for each compound. […] Results are reported as geometric mean IC50 values.
On to `c1cc(-c2nc3ccc(N4CCCC(c5nnc6n5CCC6)C4)nc3[nH]2)nc(C2CC2)c1` (racemic) [Example 169, 2-(6-Cyclopropylpyridin-2-yl)-5-(3-(6,7-dihydro-5H-pyrrolo[2,1-c][1,2,4]triazol-3-yl)piperidin-1-yl)-3H-imidazo[4,5-b]pyridine], for which the half-maximal inhibitory concentration (IC50) is 292 nM.

On to `CC(C)COC(=O)N1CCCC(c2nc3ccc(N4CCC[C@@H](C(=O)N5CCCC5)C4)nc3[nH]2)C1` (stereo in doubt) [Example 61, (R)-iso-Butyl 3-(5-(3-(pyrrolidine-1-carbonyl)piperidin-1-yl)-3H-imidazo[4,5-b]pyridine-2-yl)piperidine-1-carboxylate], for which the IC50 was 86.4 nM.

Regarding `O=C([C@@H]1CCCN(c2ccc3nc(-c4cccc(OC(F)(F)F)c4)[nH]c3n2)C1)N1CCCC1` [Example 1, (R)-Pyrrolidin-1-yl(1-(2-(3-(trifluoromethoxy)phenyl)-3H-imidazo[4,5-b]pyridin-5-yl)piperidin-3-yl)methanone], the half-inhibitory concentration (IC50) was found to be 1.7 nM.

On to `CC(C)Cc1csc(-c2nc3ccc(N4CCC[C@@H](C(=O)N5CCCC5)C4)nc3[nH]2)n1` [Example 2, (R)-(1-(2-(4-Isobutylthiazol-2-yl)-3H-imidazo[4,5-b]pyridin-5-yl)piperidin-3-yl)(pyrrolidin-1-yl)methanone], for which the IC50 is 2.71 nM.

With `O=C([C@@H]1CCCN(c2ccc3nc(-c4cccc(-n5cccn5)c4)[nH]c3n2)C1)N1CCCC1` [Example 3, (R)-(1-(2-(3-(1H-Pyrazol-1-yl)phenyl)-3H-imidazo[4,5-b]pyridin-5-yl)piperidin-3-yl)(pyrrolidin-1-yl)methanone], the IC50 is 4.82 nM.

Turning to `CC(C)c1csc(-c2nc3ccc(N4CCC[C@@H](C(=O)N5CCCC5)C4)nc3[nH]2)n1` [Example 4, (R)-(1-(2-(4-Isopropylthiazol-2-yl)-3H-imidazo[4,5-b]pyridin-5-yl)piperidin-3-yl)(pyrrolidin-1-yl)methanone], the half-maximal inhibitory concentration (IC50) was determined as 6.64 nM.

Regarding `Cc1cccc(-c2nc3ccc(N4CCC[C@@H](C(=O)N5CCCC5)C4)nc3[nH]2)c1` [Example 5, (R)-Pyrrolidin-1-yl(1-(2-m-tolyl-3H-imidazo[4,5-b]pyridin-5-yl)piperidin-3-yl)methanone], the IC50 worked out at 8.24 nM.

Take `O=C([C@@H]1CCCN(c2ccc3nc(-c4cccc(-c5cnco5)c4)[nH]c3n2)C1)N1CCCC1` [Example 6, (R)-(1-(2-(3-(Oxazol-5-yl)phenyl)-3H-imidazo[4,5-b]pyridin-5-yl)piperidin-3-yl)(pyrrolidin-1-yl)methanone]: the IC50 worked out at 11.5 nM.

As to `O=C([C@@H]1CCCN(c2ccc3nc(-c4cncc(Cl)c4)[nH]c3n2)C1)N1CCCC1` [Example 7, (R)-(1-(2-(5-Chloropyridin-3-yl)-3H-imidazo[4,5-b]pyridin-5-yl)piperidin-3-yl)(pyrrolidin-1-yl)methanone], the IC50 stood at 16.3 nM.

In the case of `CNS(=O)(=O)c1cccc(-c2nc3ccc(N4CCC[C@@H](C(=O)N5CCCC5)C4)nc3[nH]2)c1` [Example 8, (R)-N-Methyl-3-(5-(3-(pyrrolidine-1-carbonyl)piperidin-1-yl)-3H-imidazo[4,5-b]pyridin-2-yl)benzenesulfonamide], the 50% inhibitory concentration (IC50) was found to be 21.1 nM.

For the compound `O=C([C@@H]1CCCN(c2ccc3nc(-c4cnn(-c5ccccc5)c4)[nH]c3n2)C1)N1CCCC1` [Example 9, (R)-(1-(2-(1-Phenyl-1H-pyrazol-4-yl)-3H-imidazo[4,5-b]pyridin-5-yl)piperidin-3-yl)(pyrrolidin-1-yl)methanone], the IC50 is 22.1 nM.

Consider `O=C([C@@H]1CCCN(c2ccc3nc(-c4ccnc(N5CCCC5)n4)[nH]c3n2)C1)N1CCCC1` [Example 10, (R)-Pyrrolidin-1-yl(1-(2-(2-(pyrrolidin-1-yl)pyrimidin-4-yl)-3H-imidazo[4,5-b]pyridin-5-yl)piperidin-3-yl)methanone], for which the concentration for half-maximal inhibition (IC50) amounted to 29.2 nM.

For `Cc1csc(-c2nc3ccc(N4CCC[C@@H](C(=O)N5CCCC5)C4)nc3[nH]2)n1` [Example 11, (R)-(1-(2-(4-Methylthiazol-2-yl)-3H-imidazo[4,5-b]pyridin-5-yl)piperidin-3-yl)(pyrrolidin-1-yl)methanone], the IC50 came out at 35 nM.

`O=C([C@@H]1CCCN(c2ccc3nc(-c4cccc5ccnn45)[nH]c3n2)C1)N1CCCC1` [Example 12, (R)-(1-(2-(Pyrazolo[1,5-a]pyridin-7-yl)-3H-imidazo[4,5-b]pyridin-5-yl)piperidin-3-yl)(pyrrolidin-1-yl)methanone]: the IC50 was 54.7 nM.

With `N#Cc1ccc(-c2nc3ccc(N4CCC[C@@H](C(=O)N5CCCC5)C4)nc3[nH]2)cc1` [Example 13, (R)-4-(5-(3-(Pyrrolidine-1-carbonyl)piperidin-1-yl)-3H-imidazo[4,5-b]pyridin-2-yl)benzonitrile], the 50% inhibitory concentration (IC50) turned out to be 63.6 nM.

Turning to `CC(C)(O)c1cc(-c2nc3ccc(N4CCC[C@@H](C(=O)N5CCCC5)C4)nc3[nH]2)ccn1` [Example 14, (R)-(1-(2-(2-(2-Hydroxypropan-2-yl)pyridin-4-yl)-3H-imidazo[4,5-b]pyridin-5-yl)piperidin-3-yl)(pyrrolidin-1-yl)methanone], the half-maximal inhibitory concentration (IC50) was 72.8 nM.

`O=C([C@@H]1CCCN(c2ccc3nc(-c4ccnc(NC5CC5)n4)[nH]c3n2)C1)N1CCCC1` [Example 15, (R)-(1-(2-(2-(Cyclopropylamino)pyrimidin-4-yl)-3H-imidazo[4,5-b]pyridin-5-yl)piperidin-3-yl)(pyrrolidin-1-yl)methanone]: the IC50 was 89.6 nM.

Consider `N#Cc1cncc(-c2nc3ccc(N4CCC[C@@H](C(=O)N5CCCC5)C4)nc3[nH]2)c1` [Example 16, (R)-5-(5-(3-(Pyrrolidine-1-carbonyl)piperidin-1-yl)-3H-imidazo[4,5-b]pyridin-2-yl)nicotinonitrile], for which the half-maximal inhibitory concentration (IC50) is 102 nM.

Turning to `Cc1nc(-c2nc3ccc(N4CCC[C@@H](C(=O)N5CCCC5)C4)nc3[nH]2)cs1` [Example 17, (R)-(1-(2-(2-Methylthiazol-4-yl)-3H-imidazo[4,5-b]pyridin-5-yl)piperidin-3-yl)(pyrrolidin-1-yl)methanone], the half-inhibitory concentration (IC50) amounted to 118 nM.

Regarding `O=C([C@@H]1CCCN(c2ccc3nc([C@H]4C[C@H]4c4ccccc4)[nH]c3n2)C1)N1CCCC1` [Example 18, ((R)-1-(2-((1S,2R)-2-Phenylcyclopropyl)-3H-imidazo[4,5-b]pyridin-5-yl)piperidin-3-yl)(pyrrolidin-1-yl)methanone], the half-inhibitory concentration (IC50) amounted to 196 nM.

In the case of `O=C([C@@H]1CCCN(c2ccc3nc(-c4ccc5nccn5c4)[nH]c3n2)C1)N1CCCC1` [Example 19, (R)-(1-(2-(Imidazo[1,2-a]pyridin-6-yl)-3H-imidazo[4,5-b]pyridin-5-yl)piperidin-3-yl)(pyrrolidin-1-yl)methanone], the IC50 was 208 nM.

`Cn1cc(Cl)c(-c2nc3ccc(N4CCC[C@@H](C(=O)N5CCCC5)C4)nc3[nH]2)n1` [Example 20, (R)-(1-(2-(4-Chloro-1-methyl-1H-pyrazol-3-yl)-3H-imidazo[4,5-b]pyridin-5-yl)piperidin-3-yl)(pyrrolidin-1-yl)methanone]: the IC50 came out at 221 nM.

`O=C([C@@H]1CCCN(c2ccc3nc(-c4ccccc4F)[nH]c3n2)C1)N1CCCC1` [Example 21, (R)-(1-(2-(2-Fluorophenyl)-3H-imidazo[4,5-b]pyridin-5-yl)piperidin-3-yl)(pyrrolidin-1-yl)methanone]: the half-inhibitory concentration (IC50) came to 346 nM.
